Laboratory results: ChEMBL document CHEMBL1201862, “PubChem BioAssay data set” (2004)
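Values below derive from 48-hour exposures of cells grown in 96-well plates, with endpoints linearly interpolated between the two concentrations bracketing the appropriate inhibition level. The concentration for 50% growth inhibition is given as GI50.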 Calls of active or inactive are those of the source. Rule as the data show it: active = GI50 up to about 1.1 µM and inactive = higher.

How the values were obtained:
Assay in all cases: NCI anticancer screen, dose series, 48 h
SNB-19 = tested on: SNB-19
ACHN = tested on: ACHN
MDA-N = tested on: MDA-N
UACC-62 = tested on: UACC-62
M14 = tested on: M14
TK-10 = tested on: TK-10
U-251 = tested on: U-251
NCI/ADR-RES = tested on: NCI/ADR-RES
SF-539 = tested on: SF-539
UACC-257 = tested on: UACC-257
SK-OV-3 = tested on: SK-OV-3
MOLT-4 = tested on: MOLT-4
LOX IMVI = tested on: LOX IMVI
A549 = tested on: A549
SK-MEL-5 = tested on: SK-MEL-5
MCF7 = tested on: MCF7
SK-MEL-2 = tested on: SK-MEL-2
HCC 2998 = tested on: HCC 2998
OVCAR-4 = tested on: OVCAR-4

Measured: GI50

CN1CN(c2ccccc2)C2(CCN(CCCCCCF)CC2)C1=O
inactive: SNB-19 71.1 µM | ACHN 31.6 µM | MDA-N 63.8 µM | UACC-62 90.2 µM | M14 73.5 µM | TK-10 65.8 µM | U-251 97.1 µM | NCI/ADR-RES 16.4 µM | SF-539 28.8 µM | UACC-257 35.2 µM | SK-OV-3 > 100 µM | MOLT-4 48.9 µM | LOX IMVI > 100 µM | A549 57.7 µM | SK-MEL-5 38.1 µM | MCF7 23.8 µM

CCOC(=O)NC(C(F)(F)F)(C(F)(F)F)P(=O)(OC(C)C)OC(C)C
inactive: SNB-19 > 100 µM | ACHN > 100 µM | MDA-N > 100 µM | UACC-62 > 100 µM | SK-MEL-2 > 100 µM | TK-10 > 100 µM | U-251 > 100 µM | NCI/ADR-RES > 100 µM | SF-539 > 100 µM | UACC-257 > 100 µM | SK-OV-3 > 100 µM | MOLT-4 > 100 µM | LOX IMVI > 100 µM | A549 > 100 µM | SK-MEL-5 > 100 µM | HCC 2998 > 100 µM | OVCAR-4 > 100 µM | MCF7 > 100 µM

CN(C)CCN1C(=O)c2ccccc2C1(O)c1ccc(Cl)cc1 (stereo unspecified)
inactive: SNB-19 > 100 µM | ACHN > 100 µM | MDA-N 79.4 µM | UACC-62 32.7 µM | M14 42.9 µM | TK-10 > 100 µM | U-251 99.1 µM | NCI/ADR-RES 97.1 µM | UACC-257 24.8 µM | SK-OV-3 > 100 µM | MOLT-4 39.3 µM | A549 > 100 µM | SK-MEL-5 24 µM | HCC 2998 62.7 µM | OVCAR-4 > 100 µM | MCF7 > 100 µM

Cc1cccc(NC(=O)/C=C/c2ccccc2)c1C
inactive: SNB-19 > 100 µM | ACHN > 100 µM | MDA-N > 100 µM | UACC-62 > 100 µM | SK-MEL-2 > 100 µM | M14 > 100 µM | TK-10 > 100 µM | U-251 > 100 µM | SF-539 > 100 µM | UACC-257 > 100 µM | SK-OV-3 > 100 µM | MOLT-4 > 100 µM | LOX IMVI > 100 µM | A549 > 100 µM | SK-MEL-5 > 100 µM | HCC 2998 > 100 µM | OVCAR-4 > 100 µM | MCF7 > 100 µM

CN1N=C(c2ccncc2)OC1c1ccc(C(F)(F)F)cc1 (stereo unspecified)
inactive: SNB-19 > 100 µM | ACHN > 100 µM | MDA-N > 100 µM | UACC-62 > 100 µM | SK-MEL-2 > 100 µM | M14 > 100 µM | TK-10 > 100 µM | U-251 91 µM | NCI/ADR-RES > 100 µM | SF-539 > 100 µM | UACC-257 > 100 µM | SK-OV-3 > 100 µM | MOLT-4 > 100 µM | LOX IMVI > 100 µM | A549 > 100 µM | SK-MEL-5 > 100 µM | HCC 2998 > 100 µM | OVCAR-4 > 100 µM | MCF7 > 100 µM

OC(c1nc2ccccc2s1)(C(F)(F)F)C(F)(F)F
inactive: SNB-19 > 100 µM | ACHN > 100 µM | MDA-N > 100 µM | UACC-62 > 100 µM | SK-MEL-2 > 100 µM | M14 > 100 µM | TK-10 > 100 µM | U-251 > 100 µM | NCI/ADR-RES > 100 µM | SF-539 > 100 µM | UACC-257 > 100 µM | SK-OV-3 > 100 µM | MOLT-4 > 100 µM | LOX IMVI > 100 µM | A549 > 100 µM | SK-MEL-5 > 100 µM | HCC 2998 > 100 µM | OVCAR-4 > 100 µM | MCF7 > 100 µM
